# Assays:
# Assay in all cases: Kinase Seeker luminescence cell-free assay
# Type in all cases: binding
# TBK1 = target: T1, TBK1 (Homo sapiens, UniProt Q9UHD2); settings: percent activity of kinase after exposure to IST5 1 µM
# T1 construct: purchased Reaction Biology (JAK1/2/3, TYK2); Luceome Biotechnologies KinaseSeeker (others)
# Description: (§1) For Jak1, Jak2, Jak3 and Tyk2, a radiometric filtration binding assay was conducted by Reaction Biologicals (Malvern, PA, USA) (Table 1). This radiometric assay is a cell-free assay which is based on conventional filter-binding assays, directly measuring kinase catalytic activity toward a specific substrate. For evaluation of the activity of the other kinases, the Kinase Seeker Technology was utilized (Luceome Biotechnologies, Tucson, AZ, USA), which is a luminescence-based cell-free assay. In this assay, the reassembly of luciferase fragments is mediated by the interaction of a kinase with an active site-dependent probe. The competitive displacement of the probe by an inhibitor is measured by a change in luminescence signal. Percent activity of each kinase after exposure to IST5 (1 µM) is presented.
# DDR1 = target: T2, DDR1 (Homo sapiens, UniProt Q08345); settings: percent activity of kinase after exposure to IST5 1 µM
# T2 construct: purchased Reaction Biology (JAK1/2/3, TYK2); Luceome Biotechnologies KinaseSeeker (others)
# Description: as §1
# PDGFRB = target: T3, PDGFRB (Homo sapiens, UniProt P09619); settings: percent activity of kinase after exposure to IST5 1 µM
# T3 construct: purchased Reaction Biology (JAK1/2/3, TYK2); Luceome Biotechnologies KinaseSeeker (others)
# Description: as §1
# PIM1 = target: T4, PIM1 (Homo sapiens, UniProt P11309); settings: percent activity of kinase after exposure to IST5 1 µM
# T4 construct: purchased Reaction Biology (JAK1/2/3, TYK2); Luceome Biotechnologies KinaseSeeker (others)
# Description: as §1
# VEGFR2 = target: T5, VEGFR2 (Homo sapiens, UniProt P35968); settings: percent activity of kinase after exposure to IST5 1 µM
# T5 construct: purchased Reaction Biology (JAK1/2/3, TYK2); Luceome Biotechnologies KinaseSeeker (others)
# Description: as §1
# TNK2 = target: T6, TNK2 (Homo sapiens, UniProt Q07912); settings: percent activity of kinase after exposure to IST5 1 µM
# T6 construct: purchased Reaction Biology (JAK1/2/3, TYK2); Luceome Biotechnologies KinaseSeeker (others)
# Description: as §1
# FYN = target: T7, FYN (Homo sapiens, UniProt P06241); settings: percent activity of kinase after exposure to IST5 1 µM
# T7 construct: purchased Reaction Biology (JAK1/2/3, TYK2); Luceome Biotechnologies KinaseSeeker (others)
# Description: as §1
# IKKe = target: T8, IKKe (Homo sapiens, UniProt Q14164); settings: percent activity of kinase after exposure to IST5 1 µM
# T8 construct: purchased Reaction Biology (JAK1/2/3, TYK2); Luceome Biotechnologies KinaseSeeker (others)
# Description: as §1
# MLK1 = target: T9, MLK1 (Homo sapiens, UniProt P80192); settings: percent activity of kinase after exposure to IST5 1 µM
# T9 construct: purchased Reaction Biology (JAK1/2/3, TYK2); Luceome Biotechnologies KinaseSeeker (others)
# Description: as §1
# PDGFRA = target: T10, PDGFRA (Homo sapiens, UniProt P16234); settings: percent activity of kinase after exposure to IST5 1 µM
# T10 construct: purchased Reaction Biology (JAK1/2/3, TYK2); Luceome Biotechnologies KinaseSeeker (others)
# Description: as §1
# TRKB = target: T11, TRKB (Homo sapiens, UniProt Q16620)
# T11 construct: purchased Reaction Biology (JAK1/2/3, TYK2); Luceome Biotechnologies KinaseSeeker (others)
# Description: as §1
# IGF1R = target: T12, IGF1R (Homo sapiens, UniProt P08069); settings: percent activity of kinase after exposure to IST5 1 µM
# T12 construct: purchased Reaction Biology (JAK1/2/3, TYK2); Luceome Biotechnologies KinaseSeeker (others)
# Description: as §1
# FAK = target: T13, FAK (Homo sapiens, UniProt Q05397); settings: percent activity of kinase after exposure to IST5 1 µM
# T13 construct: purchased Reaction Biology (JAK1/2/3, TYK2); Luceome Biotechnologies KinaseSeeker (others)
# Description: as §1
# LCK = target: T14, LCK (Homo sapiens, UniProt P06239); settings: percent activity of kinase after exposure to IST5 1 µM
# T14 construct: purchased Reaction Biology (JAK1/2/3, TYK2); Luceome Biotechnologies KinaseSeeker (others)
# Description: as §1
# MET = target: T15, MET (Homo sapiens, UniProt P08581); settings: percent activity of kinase after exposure to IST5 1 µM
# T15 construct: purchased Reaction Biology (JAK1/2/3, TYK2); Luceome Biotechnologies KinaseSeeker (others)
# Description: as §1
# CAMK1D = target: T16, CAMK1D (Homo sapiens, UniProt Q8IU85); settings: percent activity of kinase after exposure to IST5 1 µM
# T16 construct: purchased Reaction Biology (JAK1/2/3, TYK2); Luceome Biotechnologies KinaseSeeker (others)
# Description: as §1
# MSK2 = target: T17, MSK2 (Homo sapiens, UniProt O75676); settings: percent activity of kinase after exposure to IST5 1 µM
# T17 construct: purchased Reaction Biology (JAK1/2/3, TYK2); Luceome Biotechnologies KinaseSeeker (others)
# Description: as §1
# SYK = target: T18, SYK (Homo sapiens, UniProt P43405); settings: percent activity of kinase after exposure to IST5 1 µM
# T18 construct: purchased Reaction Biology (JAK1/2/3, TYK2); Luceome Biotechnologies KinaseSeeker (others)
# Description: as §1
# CAMKK2 = target: T19, CAMKK2 (Homo sapiens, UniProt Q96RR4); settings: percent activity of kinase after exposure to IST5 1 µM
# T19 construct: purchased Reaction Biology (JAK1/2/3, TYK2); Luceome Biotechnologies KinaseSeeker (others)
# Description: as §1
# EPHA1 = target: T20, EPHA1 (Homo sapiens, UniProt P21709); settings: percent activity of kinase after exposure to IST5 1 µM
# T20 construct: purchased Reaction Biology (JAK1/2/3, TYK2); Luceome Biotechnologies KinaseSeeker (others)
# Description: as §1
# AURKA = target: T21, AURKA (Homo sapiens, UniProt O14965); settings: percent activity of kinase after exposure to IST5 1 µM
# T21 construct: purchased Reaction Biology (JAK1/2/3, TYK2); Luceome Biotechnologies KinaseSeeker (others)
# Description: as §1
# FLT1 = target: T22, FLT1 (Homo sapiens, UniProt P17948); settings: percent activity of kinase after exposure to IST5 1 µM
# T22 construct: purchased Reaction Biology (JAK1/2/3, TYK2); Luceome Biotechnologies KinaseSeeker (others)
# Description: as §1
# MLK3 = target: T23, MLK3 (Homo sapiens, UniProt Q16584); settings: percent activity of kinase after exposure to IST5 1 µM
# T23 construct: purchased Reaction Biology (JAK1/2/3, TYK2); Luceome Biotechnologies KinaseSeeker (others)
# Description: as §1
# YES1 = target: T24, YES1 (Homo sapiens, UniProt P07947); settings: percent activity of kinase after exposure to IST5 1 µM
# T24 construct: purchased Reaction Biology (JAK1/2/3, TYK2); Luceome Biotechnologies KinaseSeeker (others)
# Description: as §1
# TRKC = target: T25, TRKC (Homo sapiens, UniProt Q16288); settings: percent activity of kinase after exposure to IST5 1 µM
# T25 construct: purchased Reaction Biology (JAK1/2/3, TYK2); Luceome Biotechnologies KinaseSeeker (others)
# Description: as §1
# BLK = target: T26, BLK (Homo sapiens, UniProt P51451); settings: percent activity of kinase after exposure to IST5 1 µM
# T26 construct: purchased Reaction Biology (JAK1/2/3, TYK2); Luceome Biotechnologies KinaseSeeker (others)
# Description: as §1
# ABL2 = target: T27, ABL2 (Homo sapiens, UniProt P42684); settings: percent activity of kinase after exposure to IST5 1 µM
# T27 construct: purchased Reaction Biology (JAK1/2/3, TYK2); Luceome Biotechnologies KinaseSeeker (others)
# Description: as §1
# DDR2 = target: T28, DDR2 (Homo sapiens, UniProt Q16832); settings: percent activity of kinase after exposure to IST5 1 µM
# T28 construct: purchased Reaction Biology (JAK1/2/3, TYK2); Luceome Biotechnologies KinaseSeeker (others)
# Description: as §1
# SLK = target: T29, SLK (Homo sapiens, UniProt Q9H2G2); settings: percent activity of kinase after exposure to IST5 1 µM
# T29 construct: purchased Reaction Biology (JAK1/2/3, TYK2); Luceome Biotechnologies KinaseSeeker (others)
# Description: as §1
# CAMKK1 = target: T30, CAMKK1 (Homo sapiens, UniProt Q8N5S9); settings: percent activity of kinase after exposure to IST5 1 µM
# T30 construct: purchased Reaction Biology (JAK1/2/3, TYK2); Luceome Biotechnologies KinaseSeeker (others)
# Description: as §1
# SRC = target: T31, SRC (Homo sapiens, UniProt P12931); settings: percent activity of kinase after exposure to IST5 1 µM
# T31 construct: purchased Reaction Biology (JAK1/2/3, TYK2); Luceome Biotechnologies KinaseSeeker (others)
# Description: as §1
# AXL = target: T32, AXL (Homo sapiens, UniProt P30530); settings: percent activity of kinase after exposure to IST5 1 µM
# T32 construct: purchased Reaction Biology (JAK1/2/3, TYK2); Luceome Biotechnologies KinaseSeeker (others)
# Description: as §1
# AKT1 = target: T33, AKT1 (Homo sapiens, UniProt P31749); settings: percent activity of kinase after exposure to IST5 1 µM
# T33 construct: purchased Reaction Biology (JAK1/2/3, TYK2); Luceome Biotechnologies KinaseSeeker (others)
# Description: as §1
# AURKB = target: T34, AURKB (Homo sapiens, UniProt Q96GD4); settings: percent activity of kinase after exposure to IST5 1 µM
# T34 construct: purchased Reaction Biology (JAK1/2/3, TYK2); Luceome Biotechnologies KinaseSeeker (others)
# Description: as §1
# PAK1 = target: T35, PAK1 (Homo sapiens, UniProt Q13153); settings: percent activity of kinase after exposure to IST5 1 µM
# T35 construct: purchased Reaction Biology (JAK1/2/3, TYK2); Luceome Biotechnologies KinaseSeeker (others)
# Description: as §1
# T11 sequence (Q16620 32-822): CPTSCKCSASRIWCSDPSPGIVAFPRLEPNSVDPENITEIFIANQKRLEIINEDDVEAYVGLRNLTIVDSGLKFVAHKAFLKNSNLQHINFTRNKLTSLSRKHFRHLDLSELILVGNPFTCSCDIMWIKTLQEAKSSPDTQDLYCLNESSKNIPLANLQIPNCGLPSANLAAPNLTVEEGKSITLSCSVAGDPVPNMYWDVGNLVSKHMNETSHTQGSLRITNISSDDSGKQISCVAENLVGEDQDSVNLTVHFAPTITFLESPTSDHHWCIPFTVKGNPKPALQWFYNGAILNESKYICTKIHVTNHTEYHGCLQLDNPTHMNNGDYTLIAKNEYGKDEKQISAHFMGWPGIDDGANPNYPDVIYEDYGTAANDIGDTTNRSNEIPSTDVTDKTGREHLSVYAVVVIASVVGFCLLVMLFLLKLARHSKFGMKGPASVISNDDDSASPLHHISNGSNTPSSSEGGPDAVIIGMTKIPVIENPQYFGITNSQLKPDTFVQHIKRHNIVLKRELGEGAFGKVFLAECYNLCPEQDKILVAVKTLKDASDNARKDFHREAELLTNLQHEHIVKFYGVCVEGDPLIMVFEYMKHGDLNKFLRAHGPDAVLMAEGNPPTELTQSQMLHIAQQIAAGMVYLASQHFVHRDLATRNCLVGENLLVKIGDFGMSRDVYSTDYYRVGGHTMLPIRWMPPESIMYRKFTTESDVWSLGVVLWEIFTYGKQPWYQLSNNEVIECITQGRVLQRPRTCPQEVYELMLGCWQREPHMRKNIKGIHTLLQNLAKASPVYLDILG
# T25 sequence (Q16288 32-839): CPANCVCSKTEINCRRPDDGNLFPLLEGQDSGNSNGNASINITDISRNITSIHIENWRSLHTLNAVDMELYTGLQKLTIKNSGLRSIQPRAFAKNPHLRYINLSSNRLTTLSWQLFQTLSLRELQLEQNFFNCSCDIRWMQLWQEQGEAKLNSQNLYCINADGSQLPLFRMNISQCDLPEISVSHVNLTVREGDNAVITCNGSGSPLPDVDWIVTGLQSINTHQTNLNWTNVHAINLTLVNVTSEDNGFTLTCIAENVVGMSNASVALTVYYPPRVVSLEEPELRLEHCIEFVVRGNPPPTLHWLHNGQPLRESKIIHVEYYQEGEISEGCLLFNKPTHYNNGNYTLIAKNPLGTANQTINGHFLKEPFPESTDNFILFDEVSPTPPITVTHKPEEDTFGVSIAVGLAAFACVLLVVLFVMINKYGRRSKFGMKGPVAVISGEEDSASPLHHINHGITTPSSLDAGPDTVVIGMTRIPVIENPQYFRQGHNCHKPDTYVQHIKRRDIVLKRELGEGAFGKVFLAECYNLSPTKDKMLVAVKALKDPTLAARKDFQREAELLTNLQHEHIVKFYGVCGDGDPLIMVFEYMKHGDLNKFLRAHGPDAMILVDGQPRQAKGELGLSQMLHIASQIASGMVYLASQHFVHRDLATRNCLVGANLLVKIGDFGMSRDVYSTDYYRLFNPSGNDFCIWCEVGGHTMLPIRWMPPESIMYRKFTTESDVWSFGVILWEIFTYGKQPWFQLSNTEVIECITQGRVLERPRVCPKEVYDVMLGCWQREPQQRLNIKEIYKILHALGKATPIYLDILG
# T19 sequence (Q96RR4 whole entry): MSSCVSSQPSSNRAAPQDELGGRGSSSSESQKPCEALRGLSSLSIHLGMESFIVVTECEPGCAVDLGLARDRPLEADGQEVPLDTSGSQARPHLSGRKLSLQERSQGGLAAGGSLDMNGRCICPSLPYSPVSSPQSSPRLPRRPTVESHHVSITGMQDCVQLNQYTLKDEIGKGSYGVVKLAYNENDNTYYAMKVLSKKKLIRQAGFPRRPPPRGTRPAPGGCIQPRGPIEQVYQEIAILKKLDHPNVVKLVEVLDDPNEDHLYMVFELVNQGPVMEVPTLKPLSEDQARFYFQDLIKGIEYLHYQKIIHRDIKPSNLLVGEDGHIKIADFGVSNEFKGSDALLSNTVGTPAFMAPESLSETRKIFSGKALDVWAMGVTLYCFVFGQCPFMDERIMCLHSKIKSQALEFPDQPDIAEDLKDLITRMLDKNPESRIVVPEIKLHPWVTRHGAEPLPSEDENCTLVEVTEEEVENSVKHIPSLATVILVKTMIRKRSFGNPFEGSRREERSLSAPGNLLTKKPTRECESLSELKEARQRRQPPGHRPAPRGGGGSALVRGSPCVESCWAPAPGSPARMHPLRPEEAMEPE
# T26 sequence (P51451 whole entry): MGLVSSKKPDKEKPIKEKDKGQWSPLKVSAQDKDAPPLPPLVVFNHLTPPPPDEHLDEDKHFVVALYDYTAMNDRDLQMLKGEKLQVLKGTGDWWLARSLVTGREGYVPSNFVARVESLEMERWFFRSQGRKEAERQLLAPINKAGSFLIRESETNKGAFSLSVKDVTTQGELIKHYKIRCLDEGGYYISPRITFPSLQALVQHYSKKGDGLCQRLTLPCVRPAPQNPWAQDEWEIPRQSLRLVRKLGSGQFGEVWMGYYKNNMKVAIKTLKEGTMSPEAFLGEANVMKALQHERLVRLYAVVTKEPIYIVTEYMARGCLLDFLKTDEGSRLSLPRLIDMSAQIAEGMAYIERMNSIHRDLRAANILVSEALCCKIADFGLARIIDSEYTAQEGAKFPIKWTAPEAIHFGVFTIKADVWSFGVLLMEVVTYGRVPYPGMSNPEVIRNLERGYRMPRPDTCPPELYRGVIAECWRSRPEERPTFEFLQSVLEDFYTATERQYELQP
# T22 sequence (P17948 27-1338): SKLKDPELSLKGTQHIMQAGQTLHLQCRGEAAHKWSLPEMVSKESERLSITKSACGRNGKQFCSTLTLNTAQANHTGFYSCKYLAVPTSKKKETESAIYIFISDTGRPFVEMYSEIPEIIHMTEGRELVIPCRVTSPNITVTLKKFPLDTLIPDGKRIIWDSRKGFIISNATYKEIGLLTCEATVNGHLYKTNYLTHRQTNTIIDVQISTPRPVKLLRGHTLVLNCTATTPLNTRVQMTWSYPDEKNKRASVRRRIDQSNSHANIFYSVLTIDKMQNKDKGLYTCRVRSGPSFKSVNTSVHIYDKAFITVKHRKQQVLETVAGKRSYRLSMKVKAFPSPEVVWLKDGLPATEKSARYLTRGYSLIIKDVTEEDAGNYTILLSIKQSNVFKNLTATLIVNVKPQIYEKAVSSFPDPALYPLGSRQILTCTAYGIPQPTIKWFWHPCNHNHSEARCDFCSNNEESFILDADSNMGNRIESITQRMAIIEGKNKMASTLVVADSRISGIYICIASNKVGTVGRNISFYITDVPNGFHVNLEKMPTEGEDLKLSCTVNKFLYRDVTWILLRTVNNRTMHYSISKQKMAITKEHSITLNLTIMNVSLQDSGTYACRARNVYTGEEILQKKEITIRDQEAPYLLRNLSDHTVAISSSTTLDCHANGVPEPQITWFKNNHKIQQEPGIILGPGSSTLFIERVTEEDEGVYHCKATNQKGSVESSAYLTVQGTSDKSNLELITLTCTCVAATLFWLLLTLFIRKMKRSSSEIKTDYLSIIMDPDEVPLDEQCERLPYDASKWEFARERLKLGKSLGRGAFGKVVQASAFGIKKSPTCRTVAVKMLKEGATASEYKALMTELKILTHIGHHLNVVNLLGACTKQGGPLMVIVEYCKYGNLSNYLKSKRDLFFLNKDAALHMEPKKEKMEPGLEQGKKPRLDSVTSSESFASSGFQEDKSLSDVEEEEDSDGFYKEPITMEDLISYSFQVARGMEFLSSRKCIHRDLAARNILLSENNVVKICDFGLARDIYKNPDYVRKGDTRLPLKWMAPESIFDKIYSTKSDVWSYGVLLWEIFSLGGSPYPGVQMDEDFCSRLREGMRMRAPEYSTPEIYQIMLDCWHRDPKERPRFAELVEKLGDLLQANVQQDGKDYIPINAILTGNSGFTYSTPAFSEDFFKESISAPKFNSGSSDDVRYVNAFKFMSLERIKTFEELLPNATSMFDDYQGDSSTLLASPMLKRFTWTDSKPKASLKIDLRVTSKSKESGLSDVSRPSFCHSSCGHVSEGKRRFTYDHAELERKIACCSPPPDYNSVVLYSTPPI
# T34 sequence (Q96GD4 whole entry): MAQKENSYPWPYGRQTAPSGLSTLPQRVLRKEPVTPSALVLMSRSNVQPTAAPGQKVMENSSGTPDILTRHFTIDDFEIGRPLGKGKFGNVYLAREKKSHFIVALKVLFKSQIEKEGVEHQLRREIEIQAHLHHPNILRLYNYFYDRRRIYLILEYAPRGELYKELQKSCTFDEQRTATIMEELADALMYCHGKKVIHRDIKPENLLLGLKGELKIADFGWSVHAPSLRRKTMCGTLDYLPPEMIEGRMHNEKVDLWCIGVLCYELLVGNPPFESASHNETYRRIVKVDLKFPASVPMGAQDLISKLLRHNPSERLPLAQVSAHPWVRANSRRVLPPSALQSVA
# T1 sequence (Q9UHD2 whole entry): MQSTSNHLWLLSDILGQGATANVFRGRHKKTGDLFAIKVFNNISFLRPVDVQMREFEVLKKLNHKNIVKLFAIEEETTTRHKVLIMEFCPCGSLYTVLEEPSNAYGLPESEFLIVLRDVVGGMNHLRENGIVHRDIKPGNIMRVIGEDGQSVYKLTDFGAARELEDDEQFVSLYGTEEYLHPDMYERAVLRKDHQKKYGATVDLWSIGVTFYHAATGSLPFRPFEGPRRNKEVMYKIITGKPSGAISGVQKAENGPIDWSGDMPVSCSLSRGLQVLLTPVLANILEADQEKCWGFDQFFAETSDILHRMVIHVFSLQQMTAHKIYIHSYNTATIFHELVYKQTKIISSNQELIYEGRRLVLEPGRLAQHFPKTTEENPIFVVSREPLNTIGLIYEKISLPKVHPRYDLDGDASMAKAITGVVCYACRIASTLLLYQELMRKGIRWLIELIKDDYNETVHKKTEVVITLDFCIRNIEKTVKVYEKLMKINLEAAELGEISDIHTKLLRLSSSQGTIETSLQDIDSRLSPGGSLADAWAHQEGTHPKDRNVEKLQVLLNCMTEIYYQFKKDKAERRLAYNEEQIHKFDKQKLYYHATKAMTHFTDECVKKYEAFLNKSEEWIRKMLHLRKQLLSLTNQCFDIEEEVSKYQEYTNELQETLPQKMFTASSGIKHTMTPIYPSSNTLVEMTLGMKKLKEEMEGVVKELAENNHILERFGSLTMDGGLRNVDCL
structure (smiles),measurement,setting,value
O=P(O)(O)OCC1OC(n2cnc3c(NCc4ccccc4)ncnc32)C(O)C1O (stereo not drawn) [IST5],Activity,TBK1,92.8%
same,Activity,DDR1,89.3%
same,Activity,PDGFRB,78.4%
same,Activity,PIM1,93.9%
same,Activity,VEGFR2,89.1%
same,Activity,TNK2,98.3%
same,Activity,FYN,95.8%
same,Activity,IKKe,84.8%
same,Activity,MLK1,100.0%
same,Activity,PDGFRA,100.0%
same,Activity,"TRKB; TRKB, percent activity of kinase after exposure to IST5 1 µM",89.4%
same,inhibitory activity on TrkB,TRKB; Table 1,no inhibitory activity
same,Activity,IGF1R,100.0%
same,Activity,FAK,99.0%
same,Activity,LCK,88.9%
same,Activity,MET,100.0%
same,Activity,CAMK1D,92.0%
same,Activity,MSK2,90.0%
same,Activity,SYK,92.1%
same,Activity,CAMKK2,100.0%
same,Activity,EPHA1,94.0%
same,Activity,AURKA,85.3%
same,Activity,FLT1,88.4%
same,Activity,MLK3,93.5%
same,Activity,YES1,100.0%
same,Activity,TRKC,93.4%
same,Activity,BLK,100.0%
same,Activity,ABL2,88.6%
same,Activity,DDR2,97.4%
same,Activity,SLK,92.6%
same,Activity,CAMKK1,94.2%
same,Activity,SRC,92.1%
same,Activity,AXL,90.4%
same,Activity,AKT1,100.0%
same,Activity,AURKB,96.0%
same,Activity,PAK1,98.8%

# From article PMC7724566, “Prospects for Clinical Development of Stat5 Inhibitor IST5-002: High Transcriptomic Specificity in Prostate Cancer and Low Toxicity In Vivo” (Cancers, 2020)
